Legend:
[1] = tested on: ryegrass, Italian (Italian ryegrass, Lolium multiflorum); experiment: Test A preemergence, Italian ryegrass; format: in vivo; conditions: Lolium multiflorum, pre-emergence, 240 h, Preemergence, 0 to 100 scale (0 no effect, 100 complete control), read-out: Plant response rating, Ryegrass, Italian; for pest or weed control at 125 g/ha: 125 g ai/ha; for pest or weed control at 500 g/ha: 500 g ai/ha; for pest or weed control at 31 g/ha: 31 g ai/ha
How it was run: (§1)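 Approximately 10-day greenhouse assay. Formulated chemical (non-phytotoxic solvent plus surfactant) applied preemergence to soil over seeds or postemergence to plants of 2 to 10 cm. Endpoint: visual percent control, 0–100.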

[2] = tested on: barnyardgrass (Echinochloa crus-galli); experiment: Test A postemergence, barnyardgrass; format: in vivo; conditions: Echinochloa crus-galli, post-emergence, 240 h, postemergence, 0 to 100 scale, 0 is no effect, 100 is complete control, approximately 10 days, read-out: Plant response rating, Barnyardgrass; for pest or weed control at 125 g/ha: 125 g ai/ha; for pest or weed control at 500 g/ha: 500 g ai/ha; for pest or weed control at 31 g/ha: 31 g ai/ha
How it was run: as §1

[3] = tested on: ragweed (common ragweed, Ambrosia elatior); experiment: Test A postemergence, ragweed; format: in vivo; conditions: Ambrosia artemisiifolia, post-emergence, 240 h, postemergence, 0 to 100 scale, 0 is no effect, 100 is complete control, approximately 10 days, read-out: Plant response rating, Ragweed; for pest or weed control at 125 g/ha: 125 g ai/ha; for pest or weed control at 500 g/ha: 500 g ai/ha; for pest or weed control at 31 g/ha: 31 g ai/ha
How it was run: as §1

[4] = tested on: ryegrass, Italian (Italian ryegrass, Lolium multiflorum); experiment: Test A postemergence, Italian ryegrass; format: in vivo; conditions: Lolium multiflorum, post-emergence, 240 h, postemergence, 0 to 100 scale, 0 is no effect, 100 is complete control, approximately 10 days, read-out: Plant response rating, Ryegrass, Italian; for pest or weed control at 125 g/ha: 125 g ai/ha; for pest or weed control at 500 g/ha: 500 g ai/ha; for pest or weed control at 31 g/ha: 31 g ai/ha
How it was run: as §1

[5] = tested on: blackgrass (Alopecurus myosuroides); experiment: Test A postemergence, blackgrass; format: in vivo; conditions: Alopecurus myosuroides, post-emergence, 240 h, postemergence, 0 to 100 scale, 0 is no effect, 100 is complete control, approximately 10 days, read-out: Plant response rating, Blackgrass; for pest or weed control at 125 g/ha: 125 g ai/ha; for pest or weed control at 500 g/ha: 500 g ai/ha; for pest or weed control at 31 g/ha: 31 g ai/ha
How it was run: as §1

melting point [°C] | Structure (SMILES) | pest or weed control at 125 g/ha [1] [%] | pest or weed control at 500 g/ha [1] [%] | pest or weed control at 125 g/ha [2] [%] | pest or weed control at 500 g/ha [2] [%] | pest or weed control at 125 g/ha [3] [%] | pest or weed control at 500 g/ha [3] [%] | pest or weed control at 125 g/ha [4] [%] | pest or weed control at 500 g/ha [4] [%] | pest or weed control at 125 g/ha [5] [%] | pest or weed control at 500 g/ha [5] [%] | pest or weed control at 31 g/ha [1] [%] | pest or weed control at 31 g/ha [2] [%] | pest or weed control at 31 g/ha [3] [%] | pest or weed control at 31 g/ha [4] [%] | pest or weed control at 31 g/ha [5] [%]
– | CCCCOc1c(Br)cccc1Oc1ncc(Cl)cn1 [Compound 13, 2-[3-bromo-2-(butoxy)phenoxy]-5-chloropyrimidine] | 10 | 90 | 90 | 100 | 0 | 10 | 20 | 90 | 50 | 100 | – | – | – | – | –
– | N#Cc1cccc(Oc2ncc(Cl)cn2)c1OCC(F)(F)F [Compound 1] | 10 | – | 30 | – | 10 | – | 0 | – | 20 | – | 0 | 0 | 10 | 0 | 0
– | CCCCOc1c(C#N)cccc1Oc1ncc(Cl)cn1 [Compound 35, 2-butoxy-3-[(5-chloro-2-pyrimidinyl)oxy]benzonitrile] | 30 | 90 | 80 | 100 | 10 | 20 | 40 | 80 | 70 | 90 | – | – | – | – | –
– | Fc1cccc(Oc2ncc(Cl)cn2)c1OCC(F)(F)F [Compound 28] | 0 | 20 | 0 | 20 | 0 | 0 | 0 | 0 | 0 | 20 | – | – | – | – | –
– | N#Cc1cccc(Oc2ncc(Cl)cn2)c1OCC(F)(F)C(F)(F)F [Compound 10, 3-[(5-chloro-2-pyrimidinyl)oxy]-2-(2,2,3,3,3-pentafluoropropoxy)benzonitrile] | 40 | 100 | 90 | 100 | 0 | 50 | 30 | 90 | 90 | 100 | – | – | – | – | –
– | FC(F)(F)COc1c(Cl)cccc1Oc1ncc(Cl)cn1 [Compound 42] | 0 | – | 10 | – | 0 | – | 0 | – | 10 | – | 0 | 0 | 0 | 0 | 0
58 to 63 | N#Cc1cccc(Oc2ncc(F)cn2)c1OCC(F)(F)F [Compound 41] | 10 | – | 0 | – | 10 | – | 10 | – | 10 | – | 0 | 0 | 10 | 0 | 0
102 to 106 | N#Cc1cccc(Oc2ncc(Cl)cn2)c1OC/C=C/C(F)(F)F [Compound 8, 3-[(5-chloro-2-pyrimidinyl)oxy]-2-[[(2E)-4,4,4-trifluoro-2-buten-1-yl]oxy]benzonitrile] | 30 | – | 60 | – | 10 | – | 60 | – | 40 | – | 0 | 20 | 0 | 10 | 20
– | FC(F)C(F)(F)COc1c(Br)cccc1Oc1ncc(Cl)cn1 [Compound 18, 2-[3-bromo-2-(2,2,3,3-tetrafluoropropoxy)phenoxy]-5-chloropyrimidine] | 10 | 100 | 30 | 100 | 0 | 20 | 0 | 60 | 20 | 80 | – | – | – | – | –
– | Cc1cccc(Oc2ncc(Cl)cn2)c1OCC(F)(F)F [Compound 63] | 0 | – | 0 | – | 0 | – | 0 | – | 0 | – | 0 | 0 | 0 | 0 | 0
– | N#Cc1cccc(Oc2ncc(Cl)cn2)c1OCCC(F)(F)F [Compound 23, 3-[(5-chloro-2-pyrimidinyl)oxy]-2-(3,3,3-trifluoropropoxy)benzonitrile] | 30 | – | 90 | – | 30 | – | 40 | – | 70 | – | 0 | 50 | 0 | 20 | 20
87 to 90 | FC(F)(F)COc1c(I)cccc1Oc1ncc(Cl)cn1 [Compound 65] | 10 | – | 60 | – | 0 | – | 10 | – | 30 | – | 0 | 0 | 0 | 0 | 0

Structure (SMILES) | melting point [°C] | pest or weed control at 125 g/ha [1] [%] | pest or weed control at 500 g/ha [1] [%] | pest or weed control at 125 g/ha [2] [%] | pest or weed control at 500 g/ha [2] [%] | pest or weed control at 125 g/ha [3] [%] | pest or weed control at 500 g/ha [3] [%] | pest or weed control at 125 g/ha [4] [%] | pest or weed control at 500 g/ha [4] [%] | pest or weed control at 125 g/ha [5] [%] | pest or weed control at 500 g/ha [5] [%] | pest or weed control at 31 g/ha [1] [%] | pest or weed control at 31 g/ha [2] [%] | pest or weed control at 31 g/ha [3] [%] | pest or weed control at 31 g/ha [4] [%] | pest or weed control at 31 g/ha [5] [%]
N#Cc1cccc(Oc2ncc(Cl)cn2)c1OCCCC(F)(F)F [Compound 5, 3-[(5-chloro-2-pyrimidinyl)oxy]-2-(4,4,4-trifluorobutoxy)benzonitrile] | 51 to 54 | 60 | – | 100 | – | 30 | – | 40 | – | 90 | – | 20 | 70 | 10 | 20 | 30
N#Cc1cccc(Oc2ncc(F)cn2)c1OCCCC(F)(F)F [Compound 4, 3-[(5-fluoro-2-pyrimidinyl)oxy]-2-(4,4,4-trifluorobutoxy)benzonitrile] | 70 to 74 | 60 | – | 90 | – | 20 | – | 40 | – | 90 | – | 10 | 20 | 0 | 0 | 40
